Laboratory results published in article PMC8468439, “Oxazinethione Derivatives as a Precursor to Pyrazolone and Pyrimidine Derivatives: Synthesis, Biological Activities, Molecular Modeling, ADME, and Molecular Dynamics Studies” (Molecules, 2021).
Values after ≈ are worked out from the molar mass of the structure shown.

Columns and labels:
A. flavus = test: Antimicrobial screening, hole-plate and filter disc; format: cell-based, Aspergillus flavus; set-up: key to A (activity): (-) no activity; (+) mild activity with diameter zone of (0.5–0.7 cm); (++) moderate activity with diameter zone of (1.1–1.2 cm); (+++) marked with diameter zone of (1.6–1.8 cm); conditions: for A (activity): zone width of inhibition, compounds dissolved in 10% acetone
Method: (§1) All investigations were executed at the Biology department, Faculty of Science, Benha University, Egypt. The antimicrobial activities of all the synthesized molecules were determined in vitro, using the hole-plate and filter disc methodologies. The investigated compounds were dissolved in 10% acetone (v/v). The width of the inhibition zone indicated the potency of the antimicrobial activity: (-) no antimicrobial activity, (+) mild activity with the diameter of the zones equal to (0.5–0.7 cm), (++) moderate activity with the diameter of the zones equal to (1.1–1.2 cm), and (+++) marked activity with the diameter of the zones equal to (1.6–1.8 cm).

E. coli = test: as above; format: cell-based, Escherichia coli; set-up: key to A (activity): (-) no activity; (+) mild activity with diameter zone of (0.5–0.7 cm); (++) moderate activity with diameter zone of (1.1–1.2 cm); (+++) marked with diameter zone of (1.6–1.8 cm); conditions: for A (activity): zone width of inhibition, compounds dissolved in 10% acetone
Method: as §1

S. aureus = test: as above; format: cell-based, Staphylococcus aureus; set-up: key to A (activity): (-) no activity; (+) mild activity with diameter zone of (0.5–0.7 cm); (++) moderate activity with diameter zone of (1.1–1.2 cm); (+++) marked with diameter zone of (1.6–1.8 cm); conditions: for A (activity): zone width of inhibition, compounds dissolved in 10% acetone
Method: as §1

F. moniliform = test: as above; format: cell-based, Fusarium moniliform; conditions: for A (activity): zone width of inhibition, compounds dissolved in 10% acetone
Method: as §1

Hela for cervical cancer = test: SRB cytotoxicity assay; format: cell-based; conditions: Homo sapiens, 72 h, 3 days
Method: (§2) The cells were supplied by the Egyptian Holding Company for Biological Products and Vaccines (VACSERA) and then kept in the tissue culture unit. The growth of the cells was affected in RPMI-1640 medium, supplemented with 10% heat-inactivated FBS, 50 units/mL of penicillin, and […] of streptomycin, and maintained in a humidified atmosphere with 5% carbon dioxide. The cells were maintained as monolayer cultures by serial sub-culturing, with cell culture reagents obtained from Lonza (Basel, Switzerland). The antitumor activities of the complexes were assessed against three cell lines MCF-7 for breast cancer, Ovcar-3 for ovarian cancer, and Hela for cervical cancer. In addition, all the results obtained were compared and validated to the LCC-MK2 normal cell line. In the literature, the sulforhodamine B (SRB) assay method was applied to determine the cytotoxicity, as described in [39]. Exponentially growing cells were collected using 0.25% Trypsin-EDTA and seeded in 96-well plates at 1000–2000 cells/well in RBMI-1640-supplemented medium. The cells were kept in the medium for 24 h and then incubated for 3 days with various concentrations of the copper complexes. Following 3 days of treatment, the cells were fixed with 10% trichloroethanoic acid for 1 h at 4 °C. Wells were stained for 10 min at room temperature with 0.4% SRBC dissolved in 1% acetic acid. The plates were air-dried for 24 h, and the dye was dissolved in Tris-HCl for 5 min with shaking at 1600 rpm. An ELISA microplate reader (ChroMate-4300, FL, USA) was used to assess each well’s optical density (O.D.) at 564 nm. The IC50 values were calculated from a Boltzmann sigmoidal concentration-response curve using the nonlinear regression fitting models (Graph Pad, Prism Version 9).

LCC-MK2 normal cell line = test: SRB cytotoxicity assay; format: cell-based; conditions: 72 h, 3 days
Method: as §2

MCF-7 for breast cancer = test: SRB cytotoxicity assay; format: cell-based; conditions: Homo sapiens, MCF7, 72 h, 3 days
Method: as §2

[1] = test system: Ovcar-3 for ovarian cancer; test: SRB cytotoxicity assay; format: cell-based; conditions: Homo sapiens, 72 h, 3 days
Method: as §2

SMILES	A (activity) (A. flavus)	Mic (minimum inhibitory concentration) (E. coli)	A (activity) (E. coli)	Mic (minimum inhibitory concentration) (S. aureus)	A (activity) (S. aureus)	Mic (minimum inhibitory concentration) (F. moniliform)	A (activity) (F. moniliform)	IC50 (Hela for cervical cancer)	IC50 (LCC-MK2 normal cell line)	IC50 (MCF-7 for breast cancer)	IC50 [1]	Mic (minimum inhibitory concentration) (A. flavus)	melting point
N#CC12C(=O)NC(=S)N=C1N=C(CN1C(=O)c3c(Br)c(Br)c(Br)c(Br)c3C1=O)OC2c1ccccc1 (stereo not shown) [Compound 2b]	-	250	+ ((+) mild activity with diameter zone of (0.5–0.7 cm))	250	++ ((++) moderate activity with diameter zone of (1.1–1.2 cm))	125	+ ((+) mild activity with diameter zone of (0.5–0.7 cm))	22.8 µg/mL (≈ 30.1 µM)	89.3 µg/mL (≈ 118 µM)	13.8 µg/mL (≈ 18.2 µM)	15.2 µg/mL (≈ 20.1 µM)		
N#CC12C(=O)NN=C1N=C(CN1C(=O)c3c(Br)c(Br)c(Br)c(Br)c3C1=O)OC2c1ccccc1 (stereo not shown) [Compound 5, 2-(tetrabromophalimidmethyl)-6-phenyl-5-yano-1,3-oxazino[4,5-d]-1,2-pyrazole2[H]-3-imide]	+++ ((+++) marked with diameter zone of (1.6–1.8 cm))	250	++ ((++) moderate activity with diameter zone of (1.1–1.2 cm))	250	++ ((++) moderate activity with diameter zone of (1.1–1.2 cm))	250	+ ((+) mild activity with diameter zone of (0.5–0.7 cm))	5.69 µg/mL (≈ 7.96 µM)	191 µg/mL (≈ 267 µM)	12.3 µg/mL (≈ 17.2 µM)	10.1 µg/mL (≈ 14.1 µM)	250	
N#CC12C(=O)NC(=O)N=C1N=C(CN1C(=O)c3c(Br)c(Br)c(Br)c(Br)c3C1=O)OC2c1ccccc1 (stereo not shown) [Compound 2a]	-		-	125	+ ((+) mild activity with diameter zone of (0.5–0.7 cm))	125	+ ((+) mild activity with diameter zone of (0.5–0.7 cm))						98 to 100 °C
N#CC12C(=N)NN=C1N=C(CN1C(=O)c3c(Br)c(Br)c(Br)c(Br)c3C1=O)OC2c1ccccc1 (stereo not shown) [Compound 3, 2-(tetrabromophalimidmethyl)-6-phenyl-5-yano-1,3-oxazino[4,5-d]-1,2-pyrazole2[H]-3-one]	+ ((+) mild activity with diameter zone of (0.5–0.7 cm))	125	+ ((+) mild activity with diameter zone of (0.5–0.7 cm))	125	+ ((+) mild activity with diameter zone of (0.5–0.7 cm))	125	+ ((+) mild activity with diameter zone of (0.5–0.7 cm))	9.14 µg/mL (≈ 12.8 µM)	206 µg/mL (≈ 289 µM)	15.5 µg/mL (≈ 21.7 µM)	14.6 µg/mL (≈ 20.4 µM)	125	
N#CC12C(=N)NC(=O)N=C1N=C(CN1C(=O)c3c(Br)c(Br)c(Br)c(Br)c3C1=O)OC2c1ccccc1 (stereo not shown) [Compound 4a]	+++ ((+++) marked with diameter zone of (1.6–1.8 cm))	250	+ ((+) mild activity with diameter zone of (0.5–0.7 cm))		-	250	+ ((+) mild activity with diameter zone of (0.5–0.7 cm))	12.9 µg/mL (≈ 17.4 µM)	68.9 µg/mL (≈ 92.9 µM)	21.7 µg/mL (≈ 29.2 µM)	15.9 µg/mL (≈ 21.4 µM)	250	
N#CC12C(=N)NC(=S)N=C1N=C(CN1C(=O)c3c(Br)c(Br)c(Br)c(Br)c3C1=O)OC2c1ccccc1 (stereo not shown) [Compound 4b]	-	250	+ ((+) mild activity with diameter zone of (0.5–0.7 cm))	250	++ ((++) moderate activity with diameter zone of (1.1–1.2 cm))	125	+ ((+) mild activity with diameter zone of (0.5–0.7 cm))	14.8 µg/mL (≈ 19.5 µM)	170 µg/mL (≈ 225 µM)	16.6 µg/mL (≈ 21.8 µM)	11.2 µg/mL (≈ 14.8 µM)		
